The target in assay [1] is T1, E. coli dihydrofolate reductase (ecDHFR) (Escherichia coli, UniProt P0ABQ4).
T1 sequence (P0ABQ4 1-159): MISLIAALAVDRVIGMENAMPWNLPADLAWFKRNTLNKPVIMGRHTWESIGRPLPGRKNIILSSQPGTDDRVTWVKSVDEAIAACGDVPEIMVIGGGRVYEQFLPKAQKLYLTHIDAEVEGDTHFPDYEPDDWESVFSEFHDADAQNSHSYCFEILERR
Type of assay: binding. The note with it: 0.1 mM ecDHFR; for ILOE signals with metformin (co-binding): 5 mM of each ligand (Fenbufen 2 mM), pH 6.8, 25 °C.

The target of assay [2] is T1, E. coli dihydrofolate reductase (ecDHFR).
Assay [3] has the same target. In words: biochemical. The note with it: NMR.
Assay [4] has the same target. In words: Isothermal titration calorimetry. Type of assay: binding.
Assay [5] shares this target. Put plainly: Steady state kinetics of ecDHFR inhibition. Type of assay: biochemical. The note with it: for α value (cooperative inhibition by MFM and pABG): Dixon plots, DHF 7.5 μM, α > 1 = negative cooperativity; for Ki: 30 °C, pH 7.0; for mode of inhibition: versus DHF, Lineweaver-Burk plot.
The next assay concerns the target L. casei DHFR. The note with it: cited from earlier work.
Where [6] appears, read: Ki, Lineweaver-Burk slope vs inhibitor concentration, NADPH 70 μM.

Each structure is given as a SMILES string. Values joined by “and” are separate entries in the source; they are usually repeats but may differ in a detail not shown here. Identical values can stand only once. “Also recorded” adds a separate entry of the source. Like-named read-outs stand apart in the source and are kept apart here.

With `Cc1cc(C(=O)CCC(=O)O)c(C)c(C)c1C` [2,3,4,5-tetramethyl, 3-(2,3,4,5-tetramethylbenozyl)propionate], the “ILOE signals with metformin (co-binding)” value in assay [1] was “stronger ILOE signals”.

As to `COc1ccc(C(=O)NCC(=O)O)cc1OC` [3,4-Dimethoxyhippurate, 3,4-dimethoxyhippurate], in assay [1], the “ILOE signals with metformin (co-binding)” value is on record as “weak ILOE cross peaks”.

`CC(C)c1ccc(C(=O)CCC(=O)O)cc1` [4-isopropyl, 3-(4-isopropylbenozyl)propionate]: the “ILOE signals with metformin (co-binding)” value in assay [1] is listed as “stronger ILOE signals”.

In the case of `Cc1ccc(C(=O)NCC(=O)O)cc1` [4-methylhippurate], the “ILOE signals with metformin (co-binding)” value in assay [1] is reported as “ILOE signals were obtained”.

Turning to `Cc1ccc(C(=O)CCC(=O)O)c(C)c1` [DMBP, 3-(2,4-dimethylbenzoyl)propionate], in assay [2] (NMR serial titration, no other ligand), the affinity, expressed as Kd, was 5.4 mM.

As to `O=C(O)c1cc(-c2ccc(F)cc2F)ccc1O` [Diflunisal], the “transferred NOE signals” value in assay [1] (screening buffer, 25 °C) was “transferred NOE signals consistent with binding”.

On to `CN(C)C(=N)N=C(N)N` [Metformin], for which the Kd is 14.8 mM and 15.9 mM in assay [3] (Ile5 resonance, no other ligand, pH 7.2 in D2O); 7 ± 0.16 mM in assay [3] (Ile50, 75 mM DMBP present); 6.89 ± 0.56 mM in assay [3] (Ile50′ (MFM-sensitive resonance), 50 mM pABG present); 5.27 ± 0.71 mM in assay [3] (Ile50′, 50 mM pABG and 2 mM NADP+ present); 5.36 ± 1.15 mM in assay [3] (Ile61′ (MFM-sensitive resonance), 50 mM pABG present); 17900 µM in assay [4] (mean Kd, stated as mean of NMR and ITC displacement studies). In assay [4] (ITC competitive displacement by DHF, NADP+ present, initial fit with variable ΔH), this compound displayed a ΔH of -1.1 ± 3.2 kcal/mol. Also, the “affinity relative to DAP (fold weaker)” value in assay [2] (ecDHFR affinity for MFM versus DAP) is recorded as ~ 20 fold. Further, the “α value (cooperative inhibition by MFM and pABG)” value in assay [5] (NADPH 70 μM) is given as 3.3 ± 1.3. The inhibitory constant (Ki) stood at 24 ± 7 mM in assay [5] (setting [6]) and 17.9 mM in assay [5] (Ki, non-linear global fit of all the data (SAS), NADPH). Moreover, the mode of inhibition result in assay [5] (listed as MFM) is “competitive binding; also recorded: competitive inhibition”.

Turning to `[H]/N=C(/N)N/C(=N/[H])NCCc1ccccc1` [Phenformin, phenformin], the Kd in assay [4] (Kd, ITC direct titration, cofactor NADP+, pH 7.0, 25° C) is 188 ± 18 µM; in assay [4] (Kd, ITC direct titration, cofactor NADPH, pH 7.0, 25° C) it was 98 ± 7 µM; in assay [4] (Kd, ITC direct titration, no cofactor, pH 7.0, 25° C), 716 ± 45 µM. The compound also displayed a Ki in assay [5] (setting [6]) of 0.17 ± 0.02 mM. In assay [5] (phenformin Ki versus metformin Ki), the “inhibition constant relative to metformin (fold lower)” value came to 100 fold. Also, the mode of inhibition result in assay [5] is reported as “competitive inhibition”.

In the case of `O=C(O)CNC(=O)c1ccccc1` [hippurate, N-benzoylglycine], the “ILOE signals with metformin (co-binding)” value in assay [1] is given as “neither transferred NOE nor ILOE MFM-hippurate cross peaks were observed”.

For `Nc1ccc(C(=O)N[C@@H](CCC(=O)O)C(=O)O)cc1` [pABG, p-aminobenzoyl-L-glutamate], the “Kd ratio in the absence and presence of NADPH” value at L. casei DHFR is on record as 4.5. Also, the Kd was 7.64 ± 0.53 mM in assay [2] (NMR, Ile50 resonance, no other ligand, pH 7.2 in D2O); 8.09 ± 0.52 mM in assay [2] (NMR, Ile61 resonance, no other ligand, pH 7.2 in D2O); 8 ± 0.37 mM in assay [2] (NMR, Ile94 resonance, no other ligand, pH 7.2 in D2O); 7.9 mM and 7.91 mM in assay [2] (read-out: Kd (mean), mean of NMR values from Ile50, Ile61, Ile94). The “ILOE signals with metformin (co-binding)” value in assay [1] is on record as “ILOE signals connecting the MFM methyl resonances with the pABG aromatic resonances were present”. Moreover, the “α value (cooperative inhibition by MFM and pABG)” value in assay [5] (NADPH 70 μM) was found to be 3.3 ± 1.3. Besides, the Kd/Ki ratio in assay [5] (Kd (NMR, no cofactor) over Ki (NADPH present)) was 4.4. In addition, the Ki is 1.8 ± 0.3 mM in assay [5] (Lineweaver-Burk slope vs inhibitor concentration, NADPH 70 μM) and 1.3 ± 0.2 mM in assay [5] (non-linear global fit of all the data (SAS), NADPH).

Usually Kd stands for the equilibrium constant for the complex coming apart. In general, Ki refers to the dissociation constant of the complex between target and ligand, obtained from inhibition or displacement.

The record behind these values is paper PMC5740485 (Biochemistry, 2017).
